Entries after “also recorded” stand apart in the source; their conditions may differ.
molecular target: T1, KATP ion channels of beta cells in the pancreas (HIT-T15 cells) (UniProt A0A1U7QRT4+Q09427); assay: Electro-physiological experiment: whole cell patch clamp recording of KATP current; assay type: cell-based; details: single compounds vs GBC; FIG. 5
T1 construct: endogenous in cells; host or cells: HIT-T15 cells
Protocol: HIT-T15 cells used for the experimental examples below were cultivated in an RPMI 1640 culture medium containing horse serum (10%, v/v), fetal bovine serum (2.5% v/v), and 1% penicillin-streptomycin, in a 5% CO2 incubator at 37° C.
Since type II diabetes is directly related to the KATP ion channels of beta cells in the pancreas (Tarasov, A. et al., Diabetes., 53(3), pp. S113-S122, 2004), it was tested whether or not the Lithospermum erythrorhizon extract obtained in the above example or the shikonin compounds isolated therefrom blocks the KATP ion channels of beta cells in the pancreas.
The ion current was recorded by a conventional whole cell patch clamp method, using a patch clamp amplifier (EPC-9, Heka Elektronik, Lambrecht, Germany). The measurement electrode was pulled from a borosilicate glass capillary using a puller (DMZ-Universal Puller; Dagan Co., USA). The electrode was selected to have a resistance of 6 to 9 MΩ when a solution was filled in the electrode. A cover glass, to which the cells were adhered, was placed on a microscope, and the extra-cellular fluid was allowed to flow, due to gravity, at a speed of up to 0.5 ml/min. When measuring the KATP electric current, the solution inside the electrode included (in mM): 10 NaCl, 102 KCl, 1 CaCl2, 1 MgCl2, 10 HEPES, 0.1 Na2-ATP, 1 Na2-GTP, and 10 EGTA (pH 7.2). To utilize the voltage-clamp method in taking records, the capacitance and series resistance of the cell membranes were compensated by 80% or higher, and the low-pass filter was set to 1 kHZ during the experiments. To measure the KATP electric current, the cell solution was substituted with 110 mM of a barium solution (mM: 110 BaCl2, 10 HEPES, 10 glucose), after which the membrane potential was fixed at −60 mV, and the resulting introvert current was recorded. The experiment results were stored in a Pentium level IBM computer and analyzed using Pulse/Pulsefit (v8.65) software (Heka Elektronik, Lambrecht, Germany), and all of the experiments were performed at room temperature.

T1 sequence (Q09427 whole entry): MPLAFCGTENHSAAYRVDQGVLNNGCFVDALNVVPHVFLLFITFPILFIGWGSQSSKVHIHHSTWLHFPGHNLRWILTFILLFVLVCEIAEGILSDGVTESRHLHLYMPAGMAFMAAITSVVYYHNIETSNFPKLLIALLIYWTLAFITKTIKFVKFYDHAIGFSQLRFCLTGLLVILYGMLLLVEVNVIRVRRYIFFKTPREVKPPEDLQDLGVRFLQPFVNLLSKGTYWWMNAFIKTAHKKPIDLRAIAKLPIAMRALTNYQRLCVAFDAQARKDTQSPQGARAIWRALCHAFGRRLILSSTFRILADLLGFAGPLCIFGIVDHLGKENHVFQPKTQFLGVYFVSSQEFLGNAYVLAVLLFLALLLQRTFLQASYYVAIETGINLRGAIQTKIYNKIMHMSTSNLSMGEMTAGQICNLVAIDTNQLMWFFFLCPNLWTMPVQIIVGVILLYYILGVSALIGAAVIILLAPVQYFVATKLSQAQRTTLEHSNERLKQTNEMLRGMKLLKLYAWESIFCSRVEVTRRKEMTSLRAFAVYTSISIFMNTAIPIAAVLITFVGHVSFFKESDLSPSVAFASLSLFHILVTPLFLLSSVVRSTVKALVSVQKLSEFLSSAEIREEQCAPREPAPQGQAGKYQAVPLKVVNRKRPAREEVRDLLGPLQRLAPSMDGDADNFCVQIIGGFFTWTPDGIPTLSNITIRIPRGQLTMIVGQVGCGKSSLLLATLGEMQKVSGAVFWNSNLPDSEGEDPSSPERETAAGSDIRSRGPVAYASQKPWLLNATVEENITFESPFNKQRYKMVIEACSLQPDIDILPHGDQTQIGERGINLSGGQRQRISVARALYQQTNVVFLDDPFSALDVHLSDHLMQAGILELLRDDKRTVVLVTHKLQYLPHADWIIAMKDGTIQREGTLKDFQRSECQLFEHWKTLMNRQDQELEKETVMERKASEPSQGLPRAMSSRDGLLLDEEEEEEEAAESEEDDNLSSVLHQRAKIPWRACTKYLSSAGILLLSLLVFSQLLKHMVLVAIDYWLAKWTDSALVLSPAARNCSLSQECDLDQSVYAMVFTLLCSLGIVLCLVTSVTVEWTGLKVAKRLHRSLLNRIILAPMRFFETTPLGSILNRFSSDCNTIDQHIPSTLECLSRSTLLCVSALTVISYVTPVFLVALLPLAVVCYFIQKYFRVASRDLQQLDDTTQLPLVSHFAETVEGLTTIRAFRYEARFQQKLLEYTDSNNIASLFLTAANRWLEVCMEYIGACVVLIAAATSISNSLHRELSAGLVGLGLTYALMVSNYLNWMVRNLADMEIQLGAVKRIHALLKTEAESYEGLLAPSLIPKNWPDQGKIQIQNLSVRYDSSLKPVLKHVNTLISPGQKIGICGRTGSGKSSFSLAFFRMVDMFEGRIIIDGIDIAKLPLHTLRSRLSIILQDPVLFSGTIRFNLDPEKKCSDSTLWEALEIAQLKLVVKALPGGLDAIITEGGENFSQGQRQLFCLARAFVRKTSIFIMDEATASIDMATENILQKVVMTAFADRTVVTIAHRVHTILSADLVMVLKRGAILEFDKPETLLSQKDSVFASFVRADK
T1 sequence (A0A1U7QRT4 1-390): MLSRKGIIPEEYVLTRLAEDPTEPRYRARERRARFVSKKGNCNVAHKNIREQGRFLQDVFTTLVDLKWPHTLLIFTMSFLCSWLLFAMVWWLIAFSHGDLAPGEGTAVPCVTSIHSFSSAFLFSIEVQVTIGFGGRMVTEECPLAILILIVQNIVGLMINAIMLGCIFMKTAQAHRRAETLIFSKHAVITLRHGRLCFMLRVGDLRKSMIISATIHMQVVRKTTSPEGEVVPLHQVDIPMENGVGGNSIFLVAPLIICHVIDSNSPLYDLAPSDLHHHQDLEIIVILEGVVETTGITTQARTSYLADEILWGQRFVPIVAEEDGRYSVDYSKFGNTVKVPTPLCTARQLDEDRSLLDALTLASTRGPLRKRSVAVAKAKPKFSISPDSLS

Row | Structure (SMILES) | inhibition of KATP ion channels by shikonin single compounds compared with GBC
1 | CC(C)=CCC(OC(=O)CC(C)C)C1=CC(=O)c2c(O)ccc(O)c2C1=O (stereo not shown) [VS, Isovaleryl Shikonin] | effectively inhibit KATP ion channels; also recorded: the best in providing the inhibitory effects
2 | CC(C)=CCC(OC(=O)C(C)C)C1=CC(=O)c2c(O)ccc(O)c2C1=O (stereo not shown) [BS, Isobutyryl Shikonin] | effectively inhibit KATP ion channels
3 | CC(C)=CCC(OC(=O)C=C(C)C)C1=CC(=O)c2c(O)ccc(O)c2C1=O (stereo not drawn) [DS, β. β-dimethylacryl Shikonin] | effectively inhibit KATP ion channels; also recorded: the best in providing the inhibitory effects
4 | CCC(C)C(=O)OC(CC=C(C)C)C1=CC(=O)c2c(O)ccc(O)c2C1=O (stereo not drawn) [MS, α-methyl-n-butyryl Shikonin] | effectively inhibit KATP ion channels
